Laboratory results as given in patent US20230270704A1, “AMINOACIDS FOR TREATMENT OF NEUROLOGICAL DISORDERS” (ScandiBio Therapeutics AB, priority 2020, published 2023).

Legend:
Caspase 3 = assay: Alzheimer's disease study in HFD + icv STZ rats, immunofluorescence examination of brain tissues (FITC); assay type: in vivo, Sprague-Dawley rats; conditions: for Caspase-3 expression in immunofluorescence staining: HFD + STZ rats, grade in words; for Caspase 3 (IFA FITC): HFD 5 weeks + STZ 3 mg/kg icv, substances once daily by oral gavage, score
Method: (§1) 12 weeks old female Sprague-Dawley rats (weighing 320-380 g) were kept at a controlled temperature of 22±2° C. and a controlled humidity of 50±5% on a 12-hour light/dark cycle. Food and water were available ad libitum. The animal experiments are performed at Medical Experimental Research Center, Ataturk University, Erzurum, Turkey. All experiments for the treatment of the animals were approved by the Ethics Committee of Atatürk University, and were conducted following the National Institutes of Health Guide for Care and Use of Laboratory Animals.
(§2) After acclimation to laboratory conditions for one (1) week, rats were randomly divided into two dietary regimens receiving either a Chow diet (CD) or a high-fat diet (HFD. The animals of Group 1 (n=4) were fed with only regular CD for five (5) weeks. The animals of Group 2 (n=4) were fed with CD and treated with STZ. The remaining animals (n=4) were fed with HFD for 3 weeks and sacrificed to verify the model development (Group 3). Groups 4-13 were fed with HFD for 5 weeks. After 3 weeks, the animals in Groups 5-13 were treated with STZ and administered with individual or combined substances. The animals in Group 4 were injected (icy) with a control substance (saline) after 3 weeks.
(§3) Before surgical procedures, the rats were anesthetized by intraperitoneal administration of ketamine-xylazine (50 mg/kg ketamine and 5 mg/kg xylazine) and placed individually in the stereotaxic instrument (Stoelting, Ill., USA). Stereotaxic coordinates for injection were 0.8 mm posterior to the bregma, 1.5 mm lateral to the sagittal suture and 3.6 mm below the brain surface (Pellegrino et al. 1979). Then, 10 microliters of STZ (3 mg/kg, Sigma-Aldrich, Darmstadt, Germany) were injected over 3 min with a Hamilton micro-syringe into the bilateral ventricle. The injection needles were left in place for an additional 2 min to allow diffusion.
(§4) For carrying out the treatment experiments, the HFD rats were randomly separated into nine (9) subgroups of four (4) animals (Groups 5-13).
(§5) The body weight of the rats was recorded each week. After 5 weeks, all animals were anesthetized with isoflurane and sacrificed. Blood samples were collected from the abdominal aorta and centrifuged at 8000 rpm for 15 min at 4° C. The plasma was separated and stored at −80° C. until further analysis. Other internal organs, including the heart, adipose tissues, liver, kidney, brain, muscle, intestine (duodenum, ileum, jejunum), pancreas, colon and stomach were immediately removed and then snap-frozen in liquid nitrogen and stored at −80° C.
(§6) Tissue sections taken on adhesive (poly-L-Lysin) slides for immunoperoxidase examination were deparaffinized and […]. After washing the tissues with suppressed endogenous peroxidase activity in 3% H2O2 were boiled in antigen retrieval solution. In order to prevent nonspecific background staining in the sections, protein block compatible with all primary and secondary antibodies was dropped and incubated for 5 minutes. For brain tissues, primary antibody Caspase 3 (Cat No:sc-56053 Dilution Ratio:1/100 US) was dropped and incubated for 1 hour at 37° C. After washing, secondary FITC (Cat No: ab6717 Dilution Ratio:1/500 UK) was dropped and incubated at 37° C. for 30 minutes. The other primary antibody H2A.X (Cat No:I 0856-1 Dilution Ratio:1/100 US) was dropped and incubated at 37° C. for 1 hour. After washing, secondary Texas Red (Cat No: se-3917 Dilution Ratio:1/100 US) was dropped and incubated at 37° C. for 30 minutes. DAPI (Cat No:D-1306 Dilution Ratio:1/200 US) was dripped onto the washed tissues and incubated in the dark for 5 minutes, then glycerin was sealed.

brain tissues = assay: Alzheimer's disease study in HFD + icv STZ rats, histopathology (HE) of brain tissues; assay type: in vivo, Sprague-Dawley rats
Method: as §1, §2, §3, §4, §5
Tissue samples obtained as a result of the experimental procedure were fixed in 10% buffered formalin solution for 48 hours. Following the routine tissue procedure, the tissues were embedded in paraffin blocks and 4 μm thick sections were taken from each block. Preparations prepared for histopathological examination were stained with hematoxylin-eosin (HE) and examined with a light microscope (Olympus BX51, Germany).

hepatic steatosis = assay: short-term dietary supplementation with serine in obese subjects with hepatic steatosis; assay type: in vivo, human
Method: To test the model-based predictions, the present inventors assessed the effect of short-term dietary supplementation with serine on fatty liver and fasting levels of plasma markers of liver functions in six obese subjects (BMI 32.5±2.70 kg/m2) with hepatic steatosis. Each patient received one oral dose of ˜20 g of L-serine (200 mg/kg) per day for 14 days. The supplementation was well-tolerated by all subjects.

H2A.X = assay: Alzheimer's disease study in HFD + icv STZ rats, immunofluorescence examination of brain tissues (Texas Red); assay type: in vivo, Sprague-Dawley rats; conditions: for H2A.X expression in immunofluorescence staining: HFD + STZ rats, grade in words; for H2A.X (IFA Texas Red): HFD 5 weeks + STZ 3 mg/kg icv, substances once daily by oral gavage, score
Method: as §1, §2, §3, §4, §5, §6

8-OHdG = assay: Alzheimer's disease study in HFD + icv STZ rats, immunohistochemical examination of brain tissues; assay type: in vivo, Sprague-Dawley rats; conditions: for 8 OHdG expression in immunohistochemical staining: HFD + STZ rats, grade in words; for 8-OHdG (IHC): HFD 5 weeks + STZ 3 mg/kg icv, substances once daily by oral gavage, score
Method: as §1, §2, §3, §4, §5
Tissue sections taken on adhesive (poly-L-Lysin) slides for immunoperoxidase examination were deparaffinized and […]. After washing the tissues with suppressed endogenous peroxidase activity in 3% H2O2 were boiled in antigen retrieval solution. In order to prevent nonspecific background staining in the sections, protein block compatible with all primary and secondary antibodies was dropped and incubated for 5 minutes. 8-OHdG (Cat no: sc-66036 dilution ratio: 1/100 US) was used as the primary antibody for brain tissues.

[1] = fasting plasma marker of liver function, after 14 days of ~20 g/day oral L-serine
[2] = brain tissues, HFD 5 weeks + STZ 3 mg/kg icv, substances once daily by oral gavage, score

## N[C@@H](CO)C(=O)O [Group 6, serine]
Caspase 3
  Caspase-3 expression in immunofluorescence staining: moderate
Brain tissues; HFD + STZ rats, grade in words
  degeneration in neurons: moderate
  hyperemia in brain tissues: Moderate
  necrosis in neurons: mild
Hepatic steatosis; after 14 days of ~20 g/day oral L-serine, decreased significantly from 26.8±6.0% before
  liver fat after supplementation: 20.4±7.0%
Hepatic steatosis; [1]
  ALP level: significantly decreased
  ALT level: significantly decreased
  AST level: significantly decreased
Hepatic steatosis; six obese subjects, one oral dose of ~20 g L-serine (200 mg/kg) per day for 14 days
  tolerability of the supplementation: well-tolerated
H2A.X
  H2A.X expression in immunofluorescence staining: moderate
8-OHdG
  8 OHdG expression in immunohistochemical staining: moderate

## NC(CO)C(=O)O (centres unmarked) [Group 6]
Caspase 3
  Caspase 3 (IFA FITC): +++ (moderate (+++))
Brain tissues; [2]
  Hyperemia: +++ (moderate (+++))
  degeneration in neurons: +++ (moderate (+++))
  necrosis in neurons: ++ (mild (++))
H2A.X
  H2A.X (IFA Texas Red): +++ (moderate (+++))
8-OHdG
  8-OHdG (IHC): +++ (moderate (+++))

## CC(=O)NC(CS)C(=O)O (centres unmarked) [Group 7]
Caspase 3
  Caspase 3 (IFA FITC): +++ (moderate (+++))
Brain tissues; [2]
  Hyperemia: ++++ (severe (++++))
  degeneration in neurons: ++++ (severe (++++))
  necrosis in neurons: +++ (moderate (+++))
H2A.X
  H2A.X (IFA Texas Red): +++ (moderate (+++))
8-OHdG
  8-OHdG (IHC): +++ (moderate (+++))

## C[N+](C)(C)C[C@H](O)CC(=O)[O-].O=C(O)C(O)C(O)C(=O)O [Group 8, L-carnitine tartrate, reference compound]
Caspase 3
  Caspase-3 expression in immunofluorescence staining: moderate
Brain tissues; HFD + STZ rats, grade in words
  degeneration in neurons: moderate
  hyperemia in brain tissues: Moderate
  necrosis in neurons: mild
H2A.X
  H2A.X expression in immunofluorescence staining: moderate
8-OHdG
  8 OHdG expression in immunohistochemical staining: moderate

## NC(=O)c1ccc[n+]([C@@H]2O[C@H](CO)[C@@H](O)[C@H]2O)c1.[Cl-] [Group 9, nicotinamide riboside chloride]
Caspase 3
  Caspase-3 expression in immunofluorescence staining: moderate
Brain tissues; HFD + STZ rats, grade in words
  degeneration in neurons: moderate
  hyperemia in brain tissues: Moderate
  necrosis in neurons: mild
H2A.X
  H2A.X expression in immunofluorescence staining: moderate
8-OHdG
  8 OHdG expression in immunohistochemical staining: moderate

## CC(=O)N[C@@H](CS)C(=O)O [Group 7, N-acetyl-L-cysteine, reference compound]
Caspase 3
  Caspase-3 expression in immunofluorescence staining: moderate
Brain tissues; HFD + STZ rats, grade in words
  degeneration in neurons: severe
  hyperemia in brain tissues: Severe
  necrosis in neurons: moderate
H2A.X
  H2A.X expression in immunofluorescence staining: moderate
8-OHdG
  8 OHdG expression in immunohistochemical staining: moderate

## NC(=O)c1ccc[n+](C2OC(CO)C(O)C2O)c1.[Cl-] (centres unmarked) [Group 9]
Caspase 3
  Caspase 3 (IFA FITC): +++ (moderate (+++))
Brain tissues; [2]
  Hyperemia: +++ (moderate (+++))
  degeneration in neurons: +++ (moderate (+++))
  necrosis in neurons: ++ (mild (++))
H2A.X
  H2A.X (IFA Texas Red): +++ (moderate (+++))
8-OHdG
  8-OHdG (IHC): +++ (moderate (+++))

## C[N+](C)(C)CC(O)CC(=O)O.C[N+](C)(C)CC(O)CC(=O)O.O=C([O-])C(O)C(O)C(=O)[O-] (centres unmarked) [Group 8]
Caspase 3
  Caspase 3 (IFA FITC): +++ (moderate (+++))
Brain tissues; [2]
  Hyperemia: +++ (moderate (+++))
  degeneration in neurons: +++ (moderate (+++))
  necrosis in neurons: ++ (mild (++))
H2A.X
  H2A.X (IFA Texas Red): +++ (moderate (+++))
8-OHdG
  8-OHdG (IHC): +++ (moderate (+++))
